{"source": "patent US12203089B2", "about": "“Plants having increased tolerance to herbicides” (BASF SE, priority 2015, dated 2025)", "type_in_all_cases": "in vivo", "key": {"[1]": {"test_system": "Brassica napus expressing BnaAnng01240D (SEQ ID 20) variant S1038F", "experiment": "6-well plate injury test, T1 seeds on vermiculite", "conditions": "BnaAnng01240D S1038F event 1, 7 days after treatment", "experimental": "(§1) Transgenic Brassica napus plants are assayed for improved tolerance to azine herbicides like e. g. 6-cyclopentyl-N4-(2,3,4,5,6-pentafluorophenyl)-1,3,5-triazine-2,4-diamine in 6-well plates. Therefore, 5-6 T1 seeds are sown on vermiculite and watered with half-strength murashige skoog nutrient solution, pH 5.8 (Murashige and Skoog (1962) Physiologia Plantarum 15: 473-497). Compounds are dissolved in dimethylsulfoxid (DMSO) and added to the medium (final DMSO concentration 0.1%). Multi well plates are incubated in a growth chamber at 22° C., 75% relative humidity and 110 μmol Phot*m^−2*s^−1 with 14: 10 h light: dark photoperiod. Growth inhibition is evaluated seven to ten days after seeding in comparison to wild type plants. Plant injury is rated on a scale of 0% to 100%, 0% being no injury and 100% being complete death."}, "[2]": {"test_system": "Brassica napus expressing BnaAnng01240D (SEQ ID 20) variant S1041L", "experiment": "6-well plate injury test, T1 seeds on vermiculite", "conditions": "BnaAnng01240D S1041L event 1, 7 days after treatment", "experimental": "as §1"}, "[3]": {"test_system": "Brassica napus expressing BnaA01g04600D (SEQ ID 21) variant G1012R", "experiment": "Greenhouse herbicide tolerance, post emergent", "conditions": "7 days after treatment", "experimental": "(§2) T1/T2 transgenic plants of Brassica napus containing cellulose synthase sequences or mutated gene variants thereof are tested for improved tolerance to herbicides in greenhouse studies with azine herbicides. For the pre-emergence treatment, the herbicides are applied directly after sowing by means of finely distributing nozzles. The containers are irrigated gently to promote germination and growth and subsequently covered with transparent plastic hoods until the plants have rooted. This cover causes uniform germination of the test plants, unless this has been impaired by the herbicides. For post emergence treatment, the test plants are first grown to a height of 3 to 15 cm, depending on the plant habit, and only then treated with the herbicides. For this purpose, the test plants are either sown directly, and grown in the same containers or they are first grown separately and transplanted into the test containers a few days prior to treatment.\n(§3) Herbicide injury evaluations are taken at 1, 2 and 3 weeks after treatment. Plant biomass reduction is rated on a scale of 0% to 100%, 0% being no reduction of biomass compared to untreated control, and 100% being complete absence of biomass."}, "[4]": {"test_system": "Brassica napus expressing BnaA03g52020D (SEQ ID 15) variant G1015R", "experiment": "Greenhouse herbicide tolerance, post emergent", "conditions": "7 days after treatment", "experimental": "as §2, §3"}, "[5]": {"test_system": "Brassica napus expressing BnaA03g55200D (SEQ ID 12) variant S1038F", "experiment": "Greenhouse herbicide tolerance, post emergent", "conditions": "7 days after treatment", "experimental": "as §2, §3"}, "[6]": {"test_system": "Brassica napus expressing BnaA03g55200D (SEQ ID 12) variant S1041L", "experiment": "Greenhouse herbicide tolerance, post emergent", "conditions": "7 days after treatment", "experimental": "as §2, §3"}, "[7]": {"test_system": "Brassica napus expressing BnaAnng01240D (SEQ ID 20) variant S1038F", "experiment": "Greenhouse herbicide tolerance, post emergent", "conditions": "7 days after treatment", "experimental": "as §2, §3"}, "Brassica napus wildtype": {"test_system": "Brassica napus wildtype", "experiment": "Greenhouse herbicide tolerance, post emergent", "conditions": "7 days after treatment", "experimental": "as §2, §3"}, "[8]": {"test_system": "Arabidopsis thaliana expressing AtCesA1_G1009D_G1013R (SEQ ID 1)", "experiment": "48-well plate growth inhibition, T2 seeds, tolerance factor", "conditions": "based on IC50 values of growth inhibition, seven to ten days after seeding", "experimental": "(§4) Transgenic Arabidopsis thaliana plants (T2) are assayed for improved tolerance to azine herbicides like e. g. 6-cyclopentyl-N4-(2,3,4,5,6-pentafluorophenyl)-1,3,5-triazine-2,4-diamine in 48-well plates. Therefore, T2 seeds are surface sterilized by stirring for 5 min in ethanol+water (70+30 by volume), rinsing one time with ethanol+water (70+30 by volume) and two times with sterile, deionized water. The seeds are resuspended in 0.1% agar dissolved in water (w/v) Four to five seeds per well are plated on solid nutrient medium consisting of half-strength murashige skoog nutrient solution, pH 5.8 (Murashige and Skoog (1962) Physiologia Plantarum 15: 473-497). Compounds are dissolved in dimethylsulfoxid (DMSO) and added to the medium prior solidification (final DMSO concentration 0.1%). Multi well plates are incubated in a growth chamber at 22° C., 75% relative humidity and 110 μmol Phot*m^−2*s^−1 with 14:10 h light:dark photoperiod. Growth inhibition is evaluated seven to ten days after seeding in comparison to wild type plants. Tolerance factors are calculated based on IC50 values of growth inhibition of transformed versus non-transformed Arabidopsis plants."}, "[9]": {"test_system": "Arabidopsis thaliana expressing AtCesA1_P1010L_G1013R (SEQ ID 1)", "experiment": "48-well plate growth inhibition, T2 seeds, tolerance factor", "conditions": "based on IC50 values of growth inhibition, seven to ten days after seeding", "experimental": "as §4"}, "[10]": {"test_system": "Arabidopsis thaliana expressing AtCesA1_wt (SEQ ID 1)", "experiment": "48-well plate growth inhibition, T2 seeds, tolerance factor", "conditions": "based on IC50 values of growth inhibition, seven to ten days after seeding", "experimental": "as §4"}, "[11]": {"test_system": "Arabidopsis thaliana expressing AtCesA3_S983F_S1037F (SEQ ID 3)", "experiment": "48-well plate growth inhibition, T2 seeds, tolerance factor", "conditions": "based on IC50 values of growth inhibition, seven to ten days after seeding", "experimental": "as §4"}, "[12]": {"test_system": "Arabidopsis thaliana expressing AtCesA3_wt (SEQ ID 3)", "experiment": "48-well plate growth inhibition, T2 seeds, tolerance factor", "conditions": "based on IC50 values of growth inhibition, seven to ten days after seeding", "experimental": "as §4"}}, "data": [{"smiles": "Nc1nc(Nc2nc(F)c(F)c(Cl)c2F)nc(C2(F)CCCC2)n1", "note": "[N2-(4-chloro-3,5,6-trifluoro-2-pyridyl)-6-(1-fluorocyclopentyl)-1,3,5-triazine-2,4-diamine]", "values": [{"measurement": "average phytotox value", "setting": "[1]; 5*10-7", "result": 30, "unit": "%"}, {"measurement": "average phytotox value", "setting": "[1]; 5*10^-8M", "result": 5, "unit": "%"}, {"measurement": "average phytotox value", "setting": "[1]; 10^-6M", "result": 85, "unit": "%"}, {"measurement": "average phytotox value", "setting": "[1]; 10^-7M", "result": 30, "unit": "%"}, {"measurement": "average phytotox value", "setting": "[1]; 10^-8M", "result": 0, "unit": "%"}, {"measurement": "average phytotox value", "setting": "[2]; 5*10-7", "result": 90, "unit": "%"}, {"measurement": "average phytotox value", "setting": "[2]; 5*10^-8M", "result": 0, "unit": "%"}, {"measurement": "average phytotox value", "setting": "[2]; 10^-6M", "result": 90, "unit": "%"}, {"measurement": "average phytotox value", "setting": "[2]; 10^-7M", "result": 10, "unit": "%"}, {"measurement": "average phytotox value", "setting": "[2]; 10^-8M", "result": 0, "unit": "%"}, {"measurement": "average phytotox value", "setting": "[3]; 7.8 g/ha", "result": 34, "unit": "%"}, {"measurement": "average phytotox value", "setting": "[3]; 15.6 g/ha", "result": 61, "unit": "%"}, {"measurement": "average phytotox value", "setting": "[3]; 31.25 g/ha", "result": 65, "unit": "%"}, {"measurement": "average phytotox value", "setting": "[3]; 62.5 g/ha", "result": 72, "unit": "%"}, {"measurement": "average phytotox value", "setting": "[4]; 1st listed line, 7.8 g/ha", "result": 34, "unit": "%"}, {"measurement": "average phytotox value", "setting": "[4]; 1st listed line, 15.6 g/ha", "result": 43, "unit": "%"}, {"measurement": "average phytotox value", "setting": "[4]; 1st listed line, 31.25 g/ha", "result": 50, "unit": "%"}, {"measurement": "average phytotox value", "setting": "[4]; 1st listed line, 62.5 g/ha", "result": 73, "unit": "%"}, {"measurement": "average phytotox value", "setting": "[4]; 2nd listed line, 7.8 g/ha", "result": 16, "unit": "%"}, {"measurement": "average phytotox value", "setting": "[4]; 2nd listed line, 15.6 g/ha", "result": 41, "unit": "%"}, {"measurement": "average phytotox value", "setting": "[4]; 2nd listed line, 31.25 g/ha", "result": 62, "unit": "%"}, {"measurement": "average phytotox value", "setting": "[4]; 2nd listed line, 62.5 g/ha", "result": 72, "unit": "%"}, {"measurement": "average phytotox value", "setting": "[5]; 1st listed line, 7.8 g/ha", "result": 8, "unit": "%"}, {"measurement": "average phytotox value", "setting": "[5]; 1st listed line, 15.6 g/ha", "result": 6, "unit": "%"}, {"measurement": "average phytotox value", "setting": "[5]; 1st listed line, 31.25 g/ha", "result": 47, "unit": "%"}, {"measurement": "average phytotox value", "setting": "[5]; 1st listed line, 62.5 g/ha", "result": 54, "unit": "%"}, {"measurement": "average phytotox value", "setting": "[5]; 2nd listed line, 7.8 g/ha", "result": 21, "unit": "%"}, {"measurement": "average phytotox value", "setting": "[5]; 2nd listed line, 15.6 g/ha", "result": 51, "unit": "%"}, {"measurement": "average phytotox value", "setting": "[5]; 2nd listed line, 31.25 g/ha", "result": 47, "unit": "%"}, {"measurement": "average phytotox value", "setting": "[5]; 2nd listed line, 62.5 g/ha", "result": 68, "unit": "%"}, {"measurement": "average phytotox value", "setting": "[6]; 7.8 g/ha", "result": 24, "unit": "%"}, {"measurement": "average phytotox value", "setting": "[6]; 15.6 g/ha", "result": 53, "unit": "%"}, {"measurement": "average phytotox value", "setting": "[6]; 31.25 g/ha", "result": 62, "unit": "%"}, {"measurement": "average phytotox value", "setting": "[6]; 62.5 g/ha", "result": 76, "unit": "%"}, {"measurement": "average phytotox value", "setting": "[7]; 1st listed line, 7.8 g/ha", "result": 7, "unit": "%"}, {"measurement": "average phytotox value", "setting": "[7]; 1st listed line, 15.6 g/ha", "result": 17, "unit": "%"}, {"measurement": "average phytotox value", "setting": "[7]; 1st listed line, 31.25 g/ha", "result": 47, "unit": "%"}, {"measurement": "average phytotox value", "setting": "[7]; 1st listed line, 62.5 g/ha", "result": 54, "unit": "%"}, {"measurement": "average phytotox value", "setting": "[7]; 2nd listed line, 7.8 g/ha", "result": 10, "unit": "%"}, {"measurement": "average phytotox value", "setting": "[7]; 2nd listed line, 15.6 g/ha", "result": 33, "unit": "%"}, {"measurement": "average phytotox value", "setting": "[7]; 2nd listed line, 31.25 g/ha", "result": 68, "unit": "%"}, {"measurement": "average phytotox value", "setting": "[7]; 2nd listed line, 62.5 g/ha", "result": 71, "unit": "%"}, {"measurement": "average phytotox value", "setting": "Brassica napus wildtype; 7.8 g/ha", "result": 42, "unit": "%"}, {"measurement": "average phytotox value", "setting": "Brassica napus wildtype; 15.6 g/ha", "result": 56, "unit": "%"}, {"measurement": "average phytotox value", "setting": "Brassica napus wildtype; 31.25 g/ha", "result": 70, "unit": "%"}, {"measurement": "average phytotox value", "setting": "Brassica napus wildtype; 62.5 g/ha", "result": 83, "unit": "%"}, {"measurement": "Relative tolerance rate as compared to non-transgenic Arabidopsis plants (non-transgenic = 1.0)", "setting": "[8]", "result": 1}, {"measurement": "Relative tolerance rate as compared to non-transgenic Arabidopsis plants (non-transgenic = 1.0)", "setting": "[9]", "result": 1}, {"measurement": "Relative tolerance rate as compared to non-transgenic Arabidopsis plants (non-transgenic = 1.0)", "setting": "[10]", "result": 2}, {"measurement": "Relative tolerance rate as compared to non-transgenic Arabidopsis plants (non-transgenic = 1.0)", "setting": "[11]", "result": 5}, {"measurement": "Relative tolerance rate as compared to non-transgenic Arabidopsis plants (non-transgenic = 1.0)", "setting": "[12]", "result": 1}]}]}
